According to article PMC7181660, “A novel specific PERK activator reduces toxicity and extends survival in Huntington's disease models” (Scientific Reports, 2020):
Where two headings read alike, the source gives them in different places.

Assays:
Experiment in all cases: biochemical
Format in all cases: biochemical
panel of 391 kinases [1] = biological target: panel of 391 kinases (Homo sapiens, UniProt P37173); details: TGFBR2, MK-28 1 µM, ATP 1 µM
panel of 391 kinases [2] = biological target: panel of 391 kinases (Homo sapiens, UniProt Q8IWQ3); details: BRSK2, MK-28 1 µM, ATP 1 µM
panel of 391 kinases [3] = biological target: panel of 391 kinases (Homo sapiens, UniProt Q96RG2); details: PASK, MK-28 1 µM, ATP 1 µM
panel of 391 kinases [4] = biological target: panel of 391 kinases (Homo sapiens, UniProt Q8NG66); details: NEK11, MK-28 1 µM, ATP 1 µM
panel of 391 kinases [5] = biological target: panel of 391 kinases (Homo sapiens, UniProt Q9Y243); details: AKT3, MK-28 1 µM, ATP 1 µM
panel of 391 kinases [6] = biological target: panel of 391 kinases (Homo sapiens, UniProt P22612); details: PKAcg, MK-28 1 µM, ATP 1 µM
panel of 391 kinases [7] = biological target: panel of 391 kinases (Homo sapiens, UniProt Q92630); details: DYRK2, MK-28 1 µM, ATP 1 µM
panel of 391 kinases [8] = biological target: panel of 391 kinases (Homo sapiens, UniProt P54646); details: compound at 1 µM, single dose in duplicates, 1 µM ATP; for remaining activity at 1 µM: read-out: % Enzyme Activity (relative to DMSO controls)
panel of 391 kinases [9] = biological target: panel of 391 kinases (Homo sapiens, UniProt O95382); details: MEKK6, MK-28 1 µM, ATP 1 µM
panel of 391 kinases [10] = biological target: panel of 391 kinases (Homo sapiens, UniProt O14965); details: Aurora A, MK-28 1 µM, ATP 1 µM
panel of 391 kinases [11] = biological target: panel of 391 kinases (Homo sapiens, UniProt P07948); details: LYN, MK-28 1 µM, ATP 1 µM
panel of 391 kinases [12] = biological target: panel of 391 kinases (Homo sapiens, UniProt Q16654); details: kinase PDK4/PDKH4, compound at 1 µM, single dose in duplicates, 1 µM ATP
panel of 391 kinases [13] = biological target: panel of 391 kinases (Homo sapiens, UniProt Q8NEV4); details: MYO3A, MK-28 1 µM, ATP 1 µM
panel of 391 kinases [14] = biological target: panel of 391 kinases (Homo sapiens, UniProt Q09013); details: DMPK, MK-28 1 µM, ATP 1 µM
panel of 391 kinases [15] = biological target: panel of 391 kinases (Homo sapiens, UniProt Q9Y463); details: DYRK1B, MK-28 1 µM, ATP 1 µM
panel of 391 kinases [16] = biological target: panel of 391 kinases (Homo sapiens, UniProt P16591); details: FER, MK-28 1 µM, ATP 1 µM
panel of 391 kinases [17] = biological target: panel of 391 kinases (Homo sapiens, UniProt O94804); details: LOK/STK10, MK-28 1 µM, ATP 1 µM
panel of 391 kinases [18] = biological target: panel of 391 kinases (Homo sapiens, UniProt Q96BR1); details: SGK3/SGKL, MK-28 1 µM, ATP 1 µM
panel of 391 kinases [19] = biological target: panel of 391 kinases (Homo sapiens, UniProt O14757); details: CHK1, MK-28 1 µM, ATP 1 µM
panel of 391 kinases [20] = biological target: panel of 391 kinases (Homo sapiens, UniProt Q5TCY1); details: TTBK1, MK-28 1 µM, ATP 1 µM
panel of 391 kinases [21] = biological target: panel of 391 kinases (Homo sapiens, UniProt P10721); details: c-Kit, MK-28 1 µM, ATP 1 µM
panel of 391 kinases [22] = biological target: panel of 391 kinases (Homo sapiens, UniProt P17612); details: PKA, MK-28 1 µM, ATP 1 µM
panel of 391 kinases [23] = biological target: panel of 391 kinases (Homo sapiens, UniProt P57059); details: SIK1, MK-28 1 µM, ATP 1 µM
[24] = read-out: % Enzyme Activity (relative to DMSO controls)

Q: With `CN(/N=C\c1ccc(O)c(O)c1)c1nc(-c2ccccc2)cc(-c2ccccc2)n1` [MK-28] as the compound, how does the “% Enzyme Activity (relative to DMSO controls)” value (panel of 391 kinases [1]) read?
A: The value was 94.50%.

Q: And the remaining activity at 1 µM (panel of 391 kinases [1]; [24])?
A: The remaining activity at 1 µM was 102%.

Q: What about the “% Enzyme Activity (relative to DMSO controls)” value (panel of 391 kinases [2]) of the same compound?
A: The value was 99.36%.

Q: What about the remaining activity at 1 µM (panel of 391 kinases [2]; [24]) of the same compound?
A: Its remaining activity at 1 µM is 101%.

Q: And the “% Enzyme Activity (relative to DMSO controls)” value (panel of 391 kinases [3])?
A: Its value is 91.44%.

Q: What about the remaining activity at 1 µM (panel of 391 kinases [3]; [24]) of the same compound?
A: Its remaining activity at 1 µM is 95.4%.

Q: And the “% Enzyme Activity (relative to DMSO controls)” value (panel of 391 kinases [4])?
A: Its value is 90.54%.

Q: What about the remaining activity at 1 µM (panel of 391 kinases [4]; [24]) of the same compound?
A: The remaining activity at 1 µM was 93.3%.

Q: And the “% Enzyme Activity (relative to DMSO controls)” value (panel of 391 kinases [5])?
A: The value was 81.92%.

Q: And the remaining activity at 1 µM (panel of 391 kinases [5]; [24])?
A: Its remaining activity at 1 µM is 82.2%.

Q: And the “% Enzyme Activity (relative to DMSO controls)” value (panel of 391 kinases [6])?
A: The value was 92.94%.

Q: What about the remaining activity at 1 µM (panel of 391 kinases [6]; [24]) of the same compound?
A: The remaining activity at 1 µM was 93.5%.

Q: What about the “% Enzyme Activity (relative to DMSO controls)” value (panel of 391 kinases [7]) of the same compound?
A: The value was 100.55%.

Q: And the remaining activity at 1 µM (panel of 391 kinases [7]; [24])?
A: The remaining activity at 1 µM was 101%.

Q: And the “% Enzyme Activity (relative to DMSO controls)” value (panel of 391 kinases [8]; kinase AMPK(A2/B1/G1))?
A: Its value is 91.41%.

Q: And the remaining activity at 1 µM (panel of 391 kinases [8]; kinase AMPK(A2/B1/G1))?
A: The remaining activity at 1 µM was 93%.

Q: What about the “% Enzyme Activity (relative to DMSO controls)” value (panel of 391 kinases [8]; kinase AMPK(A2/B2/G1)) of the same compound?
A: Its value is 106.33%.

Q: And the remaining activity at 1 µM (panel of 391 kinases [8]; kinase AMPK(A2/B2/G1))?
A: The remaining activity at 1 µM was 108%.

Q: And the “% Enzyme Activity (relative to DMSO controls)” value (panel of 391 kinases [8]; kinase AMPK(A2/B2/G2))?
A: Its value is 103.36%.

Q: What about the remaining activity at 1 µM (panel of 391 kinases [8]; kinase AMPK(A2/B2/G2)) of the same compound?
A: The remaining activity at 1 µM was 104%.

Q: And the “% Enzyme Activity (relative to DMSO controls)” value (panel of 391 kinases [8]; kinase AMPK(A2/B2/G3))?
A: The value was 96.60%.

Q: What about the remaining activity at 1 µM (panel of 391 kinases [8]; kinase AMPK(A2/B2/G3)) of the same compound?
A: Its remaining activity at 1 µM is 98.9%.

Q: What about the “% Enzyme Activity (relative to DMSO controls)” value (panel of 391 kinases [9]) of the same compound?
A: Its value is 101.22%.

Q: What about the remaining activity at 1 µM (panel of 391 kinases [9]; [24]) of the same compound?
A: The remaining activity at 1 µM was 108%.

Q: What about the “% Enzyme Activity (relative to DMSO controls)” value (panel of 391 kinases [10]) of the same compound?
A: Its value is 71.13%.

Q: And the remaining activity at 1 µM (panel of 391 kinases [10]; [24])?
A: The remaining activity at 1 µM was 73.2%.

Q: And the “% Enzyme Activity (relative to DMSO controls)” value (panel of 391 kinases [11])?
A: Its value is 96.29%.

Q: What about the remaining activity at 1 µM (panel of 391 kinases [11]; [24]) of the same compound?
A: Its remaining activity at 1 µM is 96.5%.

Q: And the “% Enzyme Activity (relative to DMSO controls)” value (panel of 391 kinases [12])?
A: The value was 97.96%.

Q: And the remaining activity at 1 µM (panel of 391 kinases [12]; [24])?
A: The remaining activity at 1 µM was 98.2%.

Q: And the “% Enzyme Activity (relative to DMSO controls)” value (panel of 391 kinases [13])?
A: The value was 104.11%.

Q: And the remaining activity at 1 µM (panel of 391 kinases [13]; [24])?
A: Its remaining activity at 1 µM is 104%.

Q: What about the “% Enzyme Activity (relative to DMSO controls)” value (panel of 391 kinases [14]) of the same compound?
A: Its value is 103.01%.

Q: What about the remaining activity at 1 µM (panel of 391 kinases [14]; [24]) of the same compound?
A: The remaining activity at 1 µM was 104%.

Q: And the “% Enzyme Activity (relative to DMSO controls)” value (panel of 391 kinases [15])?
A: Its value is 88.09%.

Q: What about the remaining activity at 1 µM (panel of 391 kinases [15]; [24]) of the same compound?
A: The remaining activity at 1 µM was 89.9%.

Q: What about the “% Enzyme Activity (relative to DMSO controls)” value (panel of 391 kinases [16]) of the same compound?
A: The value was 101.21%.

Q: And the remaining activity at 1 µM (panel of 391 kinases [16]; [24])?
A: The remaining activity at 1 µM was 102%.

Q: And the “% Enzyme Activity (relative to DMSO controls)” value (panel of 391 kinases [17])?
A: The value was 100.78%.

Q: And the remaining activity at 1 µM (panel of 391 kinases [17]; [24])?
A: Its remaining activity at 1 µM is 101%.

Q: What about the “% Enzyme Activity (relative to DMSO controls)” value (panel of 391 kinases [18]) of the same compound?
A: The value was 103.83%.

Q: What about the remaining activity at 1 µM (panel of 391 kinases [18]; [24]) of the same compound?
A: Its remaining activity at 1 µM is 105%.

Q: What about the “% Enzyme Activity (relative to DMSO controls)” value (panel of 391 kinases [19]) of the same compound?
A: Its value is 141.74%.

Q: And the remaining activity at 1 µM (panel of 391 kinases [19]; [24])?
A: The remaining activity at 1 µM was 150%.

Q: And the “% Enzyme Activity (relative to DMSO controls)” value (panel of 391 kinases [20])?
A: Its value is 93.65%.

Q: What about the remaining activity at 1 µM (panel of 391 kinases [20]; [24]) of the same compound?
A: Its remaining activity at 1 µM is 99%.

Q: And the “% Enzyme Activity (relative to DMSO controls)” value (panel of 391 kinases [21])?
A: The value was 93.67%.

Q: And the remaining activity at 1 µM (panel of 391 kinases [21]; [24])?
A: The remaining activity at 1 µM was 93.8%.

Q: What about the “% Enzyme Activity (relative to DMSO controls)” value (panel of 391 kinases [22]) of the same compound?
A: Its value is 91.97%.

Q: What about the remaining activity at 1 µM (panel of 391 kinases [22]; [24]) of the same compound?
A: Its remaining activity at 1 µM is 93%.

Q: What about the “% Enzyme Activity (relative to DMSO controls)” value (panel of 391 kinases [23]) of the same compound?
A: Its value is 83.98%.

Q: And the remaining activity at 1 µM (panel of 391 kinases [23]; [24])?
A: The remaining activity at 1 µM was 85%.
